# Measurements taken from PubChem BioAssay (NCI).
# Several values for one entry are separate records, joined by “and”; a condition that tells them apart may be missing. Equal entries are not always repeated.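 Exposure lasted 48 hours, with cells grown in 96-well plates and compounds tested at five concentrations. GI50 is the concentration that inhibits growth by half. TGI is the concentration that stops growth completely.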 *1 amine or outer side, *2 acyl side, *3 side chain or, on linkers, in order; H or OH if unused. Where a SMILES comes first, the peptide text is derived from it. Bridges are numbered along the chain shown (N, C = ends). [ ]: non-standard residue; d: D form. ξ: configuration not given here. X4 = CCC(C)C(N[*:1])C(O)CC(=O)O[C@H](C(=O)C(C)C(=O)[*:2])C(C)C; NMeY = CN[C@@H](Cc1ccc(O)cc1)C(=O)O; X9 = O=C([C@@H]1CC(O)CN1[*:1])[*:2]; ξNMeL = CNC(CC(C)C)C(=O)O; ξT = CC(O)C(N)C(=O)O
# How the values were obtained:
# Assay in all cases: growth of human tumour cells (NCI), 48 h
# BT-549 breast = system: BT-549 breast
# SK-MEL-28 melanoma = system: SK-MEL-28 melanoma
# SNB-19 CNS = system: SNB-19 CNS
# HS 578T breast = system: HS 578T breast
# SW-620 colon = system: SW-620 colon
# MALME-3M melanoma = system: MALME-3M melanoma
# COLO 205 colon = system: COLO 205 colon
# SF-539 CNS = system: SF-539 CNS
# SNB-75 CNS = system: SNB-75 CNS
# ACHN renal = system: ACHN renal
SMILES,TGI (BT-549 breast),TGI (SK-MEL-28 melanoma),TGI (SNB-19 CNS),TGI (HS 578T breast),TGI (SW-620 colon),TGI (MALME-3M melanoma),TGI (COLO 205 colon),TGI (SF-539 CNS),TGI (SNB-75 CNS),TGI (ACHN renal),GI50 (BT-549 breast),GI50 (SNB-19 CNS),GI50 (HS 578T breast),GI50 (SW-620 colon),GI50 (MALME-3M melanoma),GI50 (COLO 205 colon),GI50 (SF-539 CNS),GI50 (ACHN renal),GI50 (SK-MEL-28 melanoma),GI50 (SNB-75 CNS)
O=C(O)CC(Cc1ccc2c(c1)OCO2)C(=O)O (centres undefined),> 100 µM,> 100 µM,> 100 µM,> 100 µM,> 100 µM,> 100 µM,> 100 µM,> 100 µM,> 100 µM,> 100 µM,–,–,–,–,–,–,–,–,–,–
COc1cc2c(/C=C3/C(=O)Nc4ccccc43)c(Cl)n(Cc3ccccc3)c2cc1C,> 100 µM,–,> 100 µM,> 100 µM,> 100 µM,> 100 µM,> 100 µM,> 100 µM,–,> 100 µM,> 100 µM,> 100 µM,> 100 µM,> 100 µM,> 100 µM,31.8 µM,> 100 µM,> 100 µM,–,–
c1ccc(-c2nc(Nc3ccc(-c4nc5ccccc5[nH]4)cc3)nc(N3CCOCC3)n2)cc1,3.9 µM,3.09 µM,–,6.04 µM,2.17 µM,3.85 µM,3.13 µM,2.94 µM,3.15 µM,2.74 µM,1.98 µM,–,1.89 µM,0.627 µM,2 µM,1.41 µM,1.42 µM,1.25 µM,1.56 µM,1.63 µM
COc1ccc(C2=NNC(c3ccc(-c4ccc(OC)cc4[N+](=O)[O-])o3)C2)cc1 (centres undefined),93.5 µM,> 100 µM,> 100 µM,57.5 µM,> 100 µM,69.5 µM,> 100 µM,23.1 µM,84.3 µM,> 100 µM,26.6 µM,31.8 µM,22.1 µM,78.2 µM,0.412 µM,> 100 µM,10.1 µM,42.2 µM,> 100 µM,21.2 µM
C[C@]12CC[C@H]3[C@@H](CC=C4C[C@@H](O)CC[C@@]43C)[C@@H]1C/C(=C\c1cccc(OCCN3CCOCC3)c1)[C@@H]2O,95.1 µM,56.4 µM,> 100 µM,> 100 µM,> 100 µM,65.1 µM,58.3 µM,> 100 µM,> 100 µM,> 100 µM,27 µM,> 100 µM,> 100 µM,28.3 µM,29.8 µM,7.39 µM,> 100 µM,> 100 µM,22.4 µM,> 100 µM
OCCNc1nc(NCCO)nc(Nc2ccc(C3=NN(c4cc(Cl)cc(Cl)c4)C(c4ccc(Cl)cc4)C3)cc2)n1 (centres undefined),3.8 µM,3.02 µM,4.12 µM,6.98 µM,4.52 µM,3.92 µM,3.84 µM,2.63 µM,3.06 µM,3.17 µM,1.77 µM,2.07 µM,2.22 µM,2.03 µM,2.1 µM,1.91 µM,1.35 µM,1.55 µM,1.61 µM,1.51 µM
CC(C)(C)Cn1c(N)nc2ccc(-c3[nH]c(C(C)(C)C)nc3-c3ccc(F)cc3)nc21,26 µM,23.8 µM,24.8 µM,73 µM,30.1 µM,18.1 µM,21.7 µM,28.5 µM,16.8 µM,16.7 µM,12.1 µM,11.7 µM,13.7 µM,13.6 µM,4.08 µM,7.76 µM,13.3 µM,1.04 µM,11.6 µM,2.3 µM
CCC(C)C1NC(=O)C(NC(=O)C(CC(C)C)N(C)C(=O)[C@@H]2CC(O)CN2)C(C)OC(=O)[C@H](Cc2ccc(OC)cc2)N(C)C(=O)[C@@H]2CCCN2C(=O)[C@H](CC(C)C)NC(=O)C(C)C(=O)[C@H](C(C)C)OC(=O)CC1O (some centres undefined) (H-[X9][ξNMeL][ξT][X4]LP[NMeY](Me); ester 3-C),0.0575 µM and 0.0866 µM,0.0194 µM and 0.106 µM,0.45 µM and 0.148 µM,0.0555 µM and 0.0238 µM,0.287 µM and 0.294 µM,0.0989 µM and 0.139 µM,0.0156 µM,0.0152 µM and 0.0395 µM,0.119 µM and 0.166 µM,1.01 µM and 1.9 µM,–,–,–,–,–,–,–,0.0561 µM,–,–
C=C1C(=O)O[C@H]2[C@H]1CC/C(COC(=O)NCCc1ccc(OC)cc1)=C\CC[C@@]1(C)O[C@@H]21,6.41 µM,4.39 µM,23.1 µM,62.9 µM,6.97 µM,6.7 µM,4.18 µM,4.21 µM,16.6 µM,3.55 µM,2.12 µM,8.65 µM,13.8 µM,2.51 µM,2.44 µM,1.94 µM,1.79 µM,1.72 µM,1.99 µM,4.09 µM
COc1cc(N2CCC(N(C)C)CC2)ccc1Nc1ncc(Cl)c(Nc2ccccc2P(C)(C)=O)n1,9.97 µM and 4.35 µM,37 µM and > 7.34 µM,98.7 µM and > 10 µM,8.27 µM and 2.21 µM,> 26.5 µM and 6.65 µM,31.7 µM and > 7.77 µM,1.12 µM and 0.33 µM,2.97 µM and 2.49 µM,2.69 µM and 0.82 µM,> 9.65 µM,2.98 µM and 0.791 µM,2.25 µM and 1.07 µM,1.83 µM and 0.496 µM,1.33 µM and 0.213 µM,–,0.252 µM and 0.0658 µM,1.15 µM and 0.511 µM,0.972 µM,6.44 µM and 1.31 µM,1.07 µM and 0.228 µM
O=C(Oc1ccccc1)c1cc(O)c(O)c(O)c1,83.2 µM,> 100 µM,> 100 µM,> 100 µM,> 100 µM,> 100 µM,> 100 µM,36.3 µM,> 100 µM,> 100 µM,15.6 µM,13.8 µM,4.67 µM,14.3 µM,21.8 µM,18.9 µM,5.65 µM,9.72 µM,19.2 µM,7.41 µM
N#Cc1nc(-c2cccc(Br)c2)cc(-c2ccc(Nc3nc(N4CCCCC4)nc(N4CCCCC4)n3)cc2)c1N,4.36 µM,3.89 µM,> 100 µM,5.29 µM,3.48 µM,3.1 µM,4.64 µM,3.14 µM,3.73 µM,3.3 µM,2.02 µM,6.41 µM,2.1 µM,1.53 µM,1.68 µM,1.99 µM,1.74 µM,1.72 µM,1.83 µM,1.36 µM
O=[N+]([O-])c1cccc(-c2nc3sccn3c2-c2ccnc(NCCCNS(=O)(=O)c3ccc(F)cc3)n2)c1,7.03 µM,7.92 µM,> 100 µM,> 100 µM,> 100 µM,6.76 µM,8.24 µM,> 100 µM,6.07 µM,10.8 µM,2.14 µM,4.01 µM,3.25 µM,3.95 µM,2 µM,2.44 µM,3.61 µM,2.19 µM,2.75 µM,1.58 µM
